# Where two headings read alike, the source gives them in different places.
# Tests used:
# mCB1R = biological target: T1, mCB1R (Mus musculus, UniProt P47746); assay: biochemical; conditions: for Emax: read-out: Emax cAMP mCB1R; for pEC50 ± SEM cAMP mCB1R: mouse brain; for Emax cAMP mCB1R: normalized to 10 µM CP55940
# T1 construct: from tissue; host or cells: brain of male C57BL/6J mice
# hCB2R [1] = biological target: T2, hCB2R (Homo sapiens, UniProt P34972); assay: cell-based; format: cell-based; conditions: for Emax: read-out: Emax ± SEM β-AR recruitment hCB2R
# T2 sequence (P34972 whole entry): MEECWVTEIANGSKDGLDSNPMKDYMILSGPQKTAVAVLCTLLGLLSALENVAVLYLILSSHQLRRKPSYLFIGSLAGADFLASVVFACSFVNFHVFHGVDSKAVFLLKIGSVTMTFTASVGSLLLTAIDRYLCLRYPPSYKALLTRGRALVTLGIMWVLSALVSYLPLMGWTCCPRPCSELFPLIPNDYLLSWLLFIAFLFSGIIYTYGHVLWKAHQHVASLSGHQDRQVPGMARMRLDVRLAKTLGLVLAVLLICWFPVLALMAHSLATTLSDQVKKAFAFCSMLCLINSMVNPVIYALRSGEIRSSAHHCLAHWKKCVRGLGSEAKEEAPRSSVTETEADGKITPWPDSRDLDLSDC
# hDAGL-α = biological target: T3, hDAGL-α (Homo sapiens, UniProt Q9Y4D2); assay: Biochemical DAGLα activity assay; conditions: for inhibition at 10 µM: read-out: DAGL % inhibition at 10 µM ± SD
# T3 construct: expressed in transfected cells; host or cells: HEK293T (transient), membrane preparation
# T3 sequence (Q9Y4D2 1-1042): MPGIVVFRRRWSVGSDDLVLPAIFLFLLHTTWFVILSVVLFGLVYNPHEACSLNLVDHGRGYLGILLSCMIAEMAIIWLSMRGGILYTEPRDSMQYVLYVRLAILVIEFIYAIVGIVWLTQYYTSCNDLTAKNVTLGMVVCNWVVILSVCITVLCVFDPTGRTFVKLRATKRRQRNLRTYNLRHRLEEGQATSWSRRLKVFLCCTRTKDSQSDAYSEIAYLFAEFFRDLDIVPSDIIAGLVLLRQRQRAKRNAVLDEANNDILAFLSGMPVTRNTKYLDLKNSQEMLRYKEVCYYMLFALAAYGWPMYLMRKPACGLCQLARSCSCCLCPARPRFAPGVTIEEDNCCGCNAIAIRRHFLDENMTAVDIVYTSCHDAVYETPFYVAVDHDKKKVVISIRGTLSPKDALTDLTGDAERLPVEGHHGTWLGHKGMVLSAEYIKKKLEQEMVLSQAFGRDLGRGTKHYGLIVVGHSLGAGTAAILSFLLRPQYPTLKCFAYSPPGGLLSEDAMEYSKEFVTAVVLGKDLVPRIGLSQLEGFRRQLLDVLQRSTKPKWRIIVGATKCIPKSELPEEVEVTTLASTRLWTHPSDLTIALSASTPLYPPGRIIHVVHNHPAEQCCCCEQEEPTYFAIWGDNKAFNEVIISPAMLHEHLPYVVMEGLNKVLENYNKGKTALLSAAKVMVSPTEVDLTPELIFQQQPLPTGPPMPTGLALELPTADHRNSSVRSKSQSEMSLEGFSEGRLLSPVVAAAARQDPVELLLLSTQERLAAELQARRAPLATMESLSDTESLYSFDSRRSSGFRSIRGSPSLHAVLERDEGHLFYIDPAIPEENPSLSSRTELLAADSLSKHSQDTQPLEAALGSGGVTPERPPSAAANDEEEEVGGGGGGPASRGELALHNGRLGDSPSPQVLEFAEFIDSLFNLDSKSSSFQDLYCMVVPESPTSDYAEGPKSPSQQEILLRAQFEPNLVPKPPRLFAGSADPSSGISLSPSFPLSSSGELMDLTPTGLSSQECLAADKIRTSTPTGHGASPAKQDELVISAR
# Protocol: (§1) Cell culture and membrane preparation were performed as previously described. HEK293T cells (source: Dutch Cancer Institute) were grown in DMEM with stable glutamine and phenolred (PAA), 10% New Born Calf serum, penicillin and streptomycin. Cells were passaged every 2–3 days by resuspending in medium and seeding them to appropriate confluence. Membranes were prepared from transiently transfected HEK293T cells. One day prior to transfection 10^7 cells were seeded in a 15 cm petri dish. Cells were transfected by the addition of a 3:1 mixture of polyethyleneimine (60 μg) and plasmid DNA (20 μg) in 2 ml serum-free medium. The medium was refreshed after 24 h, and after 72 h the cells were harvested by suspending them in 20 ml medium. The suspension was centrifuged for 10 min at 1000, rpm, and the supernatant was removed. The cell pellet was stored at −80 °C until use. Cell pellets were thawed on ice and suspended in lysis buffer A (20 mM HEPES, 2 mM DTT, 0.25 M sucrose, 1 mM MgCl2, […] Benzonase). The suspension was homogenized by polytrone (3 × 7 s) and incubated for 30 min on ice. The suspension was subjected to ultracentrifugation (100,000 × g, 30 min, 4 °C, Beckman Coulter, Type Ti70 rotor) to yield the cytosolic fraction in the supernatant and the membrane fraction as a pellet. The pellet was resuspended in lysis buffer B (20 mM HEPES, 2 mM DTT). The protein concentration was determined with Quick Start Bradford assay (Biorad). The protein fractions were diluted to a total protein concentration of 1 mg ml^−1 and stored in small aliquots at −80 °C until use.
# hDAGL-α activity was measured by the extent of the hydrolysis of para-nitrophenylbutyrate (PNP-butyrate) by membrane preparations from HEK293T cells (source: Dutch Cancer Institute) transiently transfected with hDAGL-α (ref. [43]). Percentage of inhibition of reference ligands was determined in comparison with an untreated control. Reactions were performed in 50 mM pH 7.2 HEPES buffer with 0.05 μg μl^−1 final protein concentration hDAGL-α transfected protein.
# MAGL = biological target: T4, MAGL (Homo sapiens, UniProt Q99685); assay: Biochemical MAGL activity assay; conditions: for inhibition at 10 µM: read-out: MAGL % inhibition at 10 µM ± SD
# T4 construct: expressed in transfected cells; host or cells: HEK293T (transient), membrane preparation
# T4 sequence (Q99685 1-303): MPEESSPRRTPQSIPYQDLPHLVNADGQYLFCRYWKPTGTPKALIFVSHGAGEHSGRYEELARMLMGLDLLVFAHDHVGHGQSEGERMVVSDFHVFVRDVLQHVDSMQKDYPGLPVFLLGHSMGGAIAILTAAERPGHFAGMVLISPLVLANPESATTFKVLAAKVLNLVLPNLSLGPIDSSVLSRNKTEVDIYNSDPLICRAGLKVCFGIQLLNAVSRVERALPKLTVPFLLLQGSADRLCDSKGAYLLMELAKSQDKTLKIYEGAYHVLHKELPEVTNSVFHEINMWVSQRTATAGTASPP
# Protocol: as §1
# Percentage of inhibition of reference ligands was determined in comparison with an untreated control. […] Fluorescence was measured in 5 min intervals for 60 min.
# mCB2R = mCB2R (Mus musculus, UniProt P47936); assay: biochemical; format: biochemical; set-up: from tissue; host or cells: spleen of male C57BL/6J mice; conditions: for Emax: read-out: Emax cAMP mCB2R; for Emax cAMP mCB2R: normalized to 10 µM CP55940
# Chain of mCB2R (P47936 whole entry): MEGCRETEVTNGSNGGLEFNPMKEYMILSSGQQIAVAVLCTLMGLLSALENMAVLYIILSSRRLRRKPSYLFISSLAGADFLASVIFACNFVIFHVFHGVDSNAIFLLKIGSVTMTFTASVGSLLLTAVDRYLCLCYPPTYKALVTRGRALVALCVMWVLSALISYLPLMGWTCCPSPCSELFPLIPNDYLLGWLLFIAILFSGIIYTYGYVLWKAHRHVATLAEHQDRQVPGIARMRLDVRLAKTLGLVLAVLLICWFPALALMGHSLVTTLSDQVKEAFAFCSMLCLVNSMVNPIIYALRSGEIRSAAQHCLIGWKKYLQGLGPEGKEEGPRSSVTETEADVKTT
# hCB2R [2] = biological target: T2, hCB2R; assay: cell-based; format: cell-based; set-up: expressed in transfected cells; host or cells: Flp-In-293 (Invitrogen #R750-07), pcDNA5/FRT
# hCB2R [3] = biological target: T2, hCB2R; assay: cell-based; format: cell-based; set-up: expressed in transfected cells; host or cells: Flp-In-293 (Invitrogen #R750-07), pcDNA5/FRT; remark: listed apart in the source
# 5-HT2B (h) = biological target: T5, 5-HT2B (h) (Homo sapiens, UniProt P41595); assay: CEREP panel; format: binding; conditions: 10 µM; for inhibition at 10 µM: read-out: % inhibition 5-HT2B (h)
# T5 construct: CEREP (contract assay)
# T5 sequence (P41595 whole entry): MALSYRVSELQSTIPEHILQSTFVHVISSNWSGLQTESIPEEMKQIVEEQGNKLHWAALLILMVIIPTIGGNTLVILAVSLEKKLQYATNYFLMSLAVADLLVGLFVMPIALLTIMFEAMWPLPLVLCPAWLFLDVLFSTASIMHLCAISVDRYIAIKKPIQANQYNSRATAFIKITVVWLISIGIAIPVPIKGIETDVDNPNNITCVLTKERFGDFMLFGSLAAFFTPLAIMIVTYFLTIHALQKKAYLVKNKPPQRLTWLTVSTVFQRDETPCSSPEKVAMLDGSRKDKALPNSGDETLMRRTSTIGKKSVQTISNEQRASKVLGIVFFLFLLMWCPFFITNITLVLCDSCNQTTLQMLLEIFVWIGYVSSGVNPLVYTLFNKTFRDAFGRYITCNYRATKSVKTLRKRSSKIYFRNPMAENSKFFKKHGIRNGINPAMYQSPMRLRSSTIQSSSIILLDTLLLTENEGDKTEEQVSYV
# [4] = antagonists in presence of EC80 of CP55940
# T1 sequence (P47746 whole entry): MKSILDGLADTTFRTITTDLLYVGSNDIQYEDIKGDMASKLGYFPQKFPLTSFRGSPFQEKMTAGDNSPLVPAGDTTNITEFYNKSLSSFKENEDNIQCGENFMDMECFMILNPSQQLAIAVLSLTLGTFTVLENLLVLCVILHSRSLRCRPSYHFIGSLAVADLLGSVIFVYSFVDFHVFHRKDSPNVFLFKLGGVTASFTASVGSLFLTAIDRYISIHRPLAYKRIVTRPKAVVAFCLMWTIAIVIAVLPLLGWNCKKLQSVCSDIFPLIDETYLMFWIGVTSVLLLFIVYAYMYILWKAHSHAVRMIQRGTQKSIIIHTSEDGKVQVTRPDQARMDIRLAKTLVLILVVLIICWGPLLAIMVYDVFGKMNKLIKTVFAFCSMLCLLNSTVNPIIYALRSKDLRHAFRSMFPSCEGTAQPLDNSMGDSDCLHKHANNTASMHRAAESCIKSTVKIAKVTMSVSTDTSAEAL
SMILES,Emax (mCB1R),Emax (hCB2R [1]),inhibition at 10 µM (hDAGL-α),inhibition at 10 µM (MAGL),Emax (mCB2R),inhibition at 10 µM (5-HT2B (h)),pEC50 ± SEM cAMP mCB1R (mCB1R),Emax cAMP mCB1R (mCB1R),MAGL % inhibition at 10 µM ± SD (MAGL),% inhibition 5-HT2B (h) (5-HT2B (h)),pEC50 ± SEM cAMP mCB2R (mCB2R; mouse spleen),Emax cAMP mCB2R (mCB2R),DAGL % inhibition at 10 µM ± SD (hDAGL-α),further results
"CCCCC/C=C\C/C=C\C/C=C\C/C=C\CCCC(=O)NCCO [Anandamide, N-arachidonoylethanolamine]",< 70%,38 ± 3%,32 ± 22%,-2 ± 19%,48%,,,,,,,,,EC50 (mCB2R): 151 nM; Emax (hCB2R [2]; read-out: Emax ± SEM cAMP hCB2R): 87 ± 7%; Emax (hCB2R [3]; read-out: Emax ± SEM pERK hCB2R): 62 ± 2%
CCCCCCC(C)(C)c1ccc([C@@H]2C[C@H](O)CC[C@H]2CCCO)c(O)c1 [CP55940],100%,80 ± 5%,20 ± 16%,5 ± 16%,100%,96%,,,,,,,,"EC50 (mCB1R; pEC50 ± SEM cAMP mCB1R): 0.00603 nM; EC50 (mCB2R; mouse spleen, read-out: pEC50 ± SEM cAMP mCB2R (converted)): 0.0676 nM"
Cc1ccc2c(c1)Cc1c(C(=O)NN3CCCCC3)nn(-c3ccc(Cl)cc3Cl)c1-2 [Gp-1a],,,,,,,5.86 ± 0.42,-28%,-1 ± 15%,29%,7.25 ± 0.32,-25%,,"pEC50 ± SEM β-AR recruitment hCB2R (hCB2R [1]; [4]): 5.86 ± 0.16; Emax ± SEM β-AR recruitment hCB2R (hCB2R [1]; normalized to 10 µM CP55940, negative = inhibition of EC80 of CP55940): -147 ± 11%; CB2R Selectivity cAMP (mouse) (mCB2R; 10^(pEC50 CB2R-pEC50 CB1R)): 25 fold; pEC50 ± SEM cAMP hCB2R (hCB2R [2]; [4]): 7.52 ± 0.14; Emax ± SEM cAMP hCB2R (hCB2R [2]; normalized to 10 µM CP55940): -85 ± 10%; Emax ± SEM pERK hCB2R (hCB2R [3]; normalized to 10 µM CP55940): 5 ± 6%"
CCCn1c(C)c(C(=O)c2cccc3ccccc23)c2ccccc21 [JWH015],,,,,,,< 5,29%,0 ± 17%,94%,7.64 ± 0.24,93%,-8 ± 5%,
Cc1c(C(=O)NN2CCCCC2)nn(-c2ccc(Cl)cc2Cl)c1-c1ccc(Cl)cc1 [SR141716A],,,20 ± 10%,4 ± 18%,,16%,,,,,,,,
Cc1c(C(=O)c2cccc3ccccc23)c2cccc3c2n1[C@H](CN1CCOCC1)CO3 [WIN55212-2],,,,,,,,,3 ± 18%,70%,8.37 ± 0.23,97%,-9 ± 12%,

# Reference: paper PMC5216056 (Nature Communications, 2017)
